ChEMBL document CHEMBL1201862, “PubChem BioAssay data set” (2004)
The source made the active and inactive calls.

Tests used:
[1] = test system: Salmon testes DNA; assay: DNA intercalators displacing acridine orange, dose response, artefact control for KSHV LANA DNA-binding inhibitor project, biochemical, fluorescence polarization, cherry-picked samples, set 2 (AID 504727); parameters: species or system Salmonidae
[2] = molecular target: ORF 73 (Human herpesvirus 8, UniProt O40947); assay: inhibitors of C-LANA binding to LBS DNA, dose response, biochemical, fluorescence polarization, cherry-picked samples (AID 504725); parameters: species or system Human gammaherpesvirus 8;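 further: fluorescence polarization of a labeled DNA duplex reporting LANA DNA binding; potency is for inhibitors that block LANA binding to the DNA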
Chain of ORF 73 (O40947 whole entry): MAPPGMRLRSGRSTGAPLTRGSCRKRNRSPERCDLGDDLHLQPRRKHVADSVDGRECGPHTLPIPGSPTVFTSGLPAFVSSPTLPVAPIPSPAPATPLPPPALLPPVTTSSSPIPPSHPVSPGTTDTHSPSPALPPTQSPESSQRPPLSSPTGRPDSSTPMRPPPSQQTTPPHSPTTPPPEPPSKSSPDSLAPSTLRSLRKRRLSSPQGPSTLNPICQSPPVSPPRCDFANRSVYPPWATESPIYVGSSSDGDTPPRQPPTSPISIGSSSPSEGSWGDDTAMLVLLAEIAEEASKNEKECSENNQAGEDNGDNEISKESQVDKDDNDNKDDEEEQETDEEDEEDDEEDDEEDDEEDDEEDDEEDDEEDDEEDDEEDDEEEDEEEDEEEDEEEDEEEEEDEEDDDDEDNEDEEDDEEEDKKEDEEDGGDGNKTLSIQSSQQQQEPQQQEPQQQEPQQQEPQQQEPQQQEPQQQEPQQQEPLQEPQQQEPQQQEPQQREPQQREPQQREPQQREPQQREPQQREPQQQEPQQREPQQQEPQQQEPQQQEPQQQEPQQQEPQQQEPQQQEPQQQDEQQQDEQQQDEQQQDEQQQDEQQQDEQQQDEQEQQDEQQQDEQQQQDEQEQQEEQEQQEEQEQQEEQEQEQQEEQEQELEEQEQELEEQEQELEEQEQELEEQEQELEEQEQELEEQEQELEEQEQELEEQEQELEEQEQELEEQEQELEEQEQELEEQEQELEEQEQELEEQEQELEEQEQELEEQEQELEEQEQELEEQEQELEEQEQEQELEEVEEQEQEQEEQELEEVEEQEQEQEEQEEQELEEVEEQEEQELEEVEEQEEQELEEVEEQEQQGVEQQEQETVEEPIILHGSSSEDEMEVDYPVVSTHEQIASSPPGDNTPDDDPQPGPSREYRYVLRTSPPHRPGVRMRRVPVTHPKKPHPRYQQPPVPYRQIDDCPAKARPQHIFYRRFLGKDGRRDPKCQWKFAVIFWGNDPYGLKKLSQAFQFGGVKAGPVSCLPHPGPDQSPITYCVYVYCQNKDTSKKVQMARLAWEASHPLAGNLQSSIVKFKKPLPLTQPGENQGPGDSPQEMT

[3] = CFTR ΔF508 corrector activity in bronchial cells, dose response, human bronchial epithelial cells, plate reader, cherry-pick, two tests (AID 743267); type: functional, cell-based
[4] = molecular target: Tumor necrosis factor (Homo sapiens, UniProt P01375); assay: TNFa-triggered NF-kB activation inhibitors, SAR follow-up, cell-based, revised (AID 2337); type: functional
[5] = molecular target: T1, Nucleotide-binding oligomerization domain-containing protein 1 (Homo sapiens, UniProt Q9Y239); assay: NOD1 signaling inhibitors, SAR follow-up, revised (AID 2333); type: functional
T1 sequence (Q9Y239 whole entry): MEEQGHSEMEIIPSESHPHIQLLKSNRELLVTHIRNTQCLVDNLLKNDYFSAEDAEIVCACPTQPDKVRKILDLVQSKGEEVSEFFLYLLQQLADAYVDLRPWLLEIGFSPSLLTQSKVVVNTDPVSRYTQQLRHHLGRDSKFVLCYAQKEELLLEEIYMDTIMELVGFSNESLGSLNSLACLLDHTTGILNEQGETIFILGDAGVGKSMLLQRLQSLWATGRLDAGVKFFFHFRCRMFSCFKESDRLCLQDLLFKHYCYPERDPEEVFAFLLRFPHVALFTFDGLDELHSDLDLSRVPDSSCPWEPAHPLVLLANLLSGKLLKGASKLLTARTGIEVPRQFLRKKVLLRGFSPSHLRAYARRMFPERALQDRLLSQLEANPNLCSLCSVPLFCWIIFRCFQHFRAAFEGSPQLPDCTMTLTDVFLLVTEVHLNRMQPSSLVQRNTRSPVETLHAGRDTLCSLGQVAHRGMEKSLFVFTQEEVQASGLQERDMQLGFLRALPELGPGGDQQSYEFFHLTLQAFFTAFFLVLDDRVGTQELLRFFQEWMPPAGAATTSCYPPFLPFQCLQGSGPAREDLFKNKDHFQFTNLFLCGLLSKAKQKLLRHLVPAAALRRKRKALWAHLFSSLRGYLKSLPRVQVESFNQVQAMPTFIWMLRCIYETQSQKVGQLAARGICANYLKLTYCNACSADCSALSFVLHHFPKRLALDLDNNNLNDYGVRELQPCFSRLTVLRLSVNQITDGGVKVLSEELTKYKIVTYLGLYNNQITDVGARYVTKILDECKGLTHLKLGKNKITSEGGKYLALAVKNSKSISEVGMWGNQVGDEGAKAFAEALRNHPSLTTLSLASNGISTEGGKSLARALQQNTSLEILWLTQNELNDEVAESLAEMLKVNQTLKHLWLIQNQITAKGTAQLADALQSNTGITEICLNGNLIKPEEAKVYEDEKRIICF

[6] = molecular target: Nucleotide-binding oligomerization domain-containing protein 2 (Homo sapiens, UniProt Q9HC29); assay: PubChem AID 2334; type: functional
Chain of Nucleotide-binding oligomerization domain-containing protein 2 (Q9HC29 whole entry, the tested form may be a part): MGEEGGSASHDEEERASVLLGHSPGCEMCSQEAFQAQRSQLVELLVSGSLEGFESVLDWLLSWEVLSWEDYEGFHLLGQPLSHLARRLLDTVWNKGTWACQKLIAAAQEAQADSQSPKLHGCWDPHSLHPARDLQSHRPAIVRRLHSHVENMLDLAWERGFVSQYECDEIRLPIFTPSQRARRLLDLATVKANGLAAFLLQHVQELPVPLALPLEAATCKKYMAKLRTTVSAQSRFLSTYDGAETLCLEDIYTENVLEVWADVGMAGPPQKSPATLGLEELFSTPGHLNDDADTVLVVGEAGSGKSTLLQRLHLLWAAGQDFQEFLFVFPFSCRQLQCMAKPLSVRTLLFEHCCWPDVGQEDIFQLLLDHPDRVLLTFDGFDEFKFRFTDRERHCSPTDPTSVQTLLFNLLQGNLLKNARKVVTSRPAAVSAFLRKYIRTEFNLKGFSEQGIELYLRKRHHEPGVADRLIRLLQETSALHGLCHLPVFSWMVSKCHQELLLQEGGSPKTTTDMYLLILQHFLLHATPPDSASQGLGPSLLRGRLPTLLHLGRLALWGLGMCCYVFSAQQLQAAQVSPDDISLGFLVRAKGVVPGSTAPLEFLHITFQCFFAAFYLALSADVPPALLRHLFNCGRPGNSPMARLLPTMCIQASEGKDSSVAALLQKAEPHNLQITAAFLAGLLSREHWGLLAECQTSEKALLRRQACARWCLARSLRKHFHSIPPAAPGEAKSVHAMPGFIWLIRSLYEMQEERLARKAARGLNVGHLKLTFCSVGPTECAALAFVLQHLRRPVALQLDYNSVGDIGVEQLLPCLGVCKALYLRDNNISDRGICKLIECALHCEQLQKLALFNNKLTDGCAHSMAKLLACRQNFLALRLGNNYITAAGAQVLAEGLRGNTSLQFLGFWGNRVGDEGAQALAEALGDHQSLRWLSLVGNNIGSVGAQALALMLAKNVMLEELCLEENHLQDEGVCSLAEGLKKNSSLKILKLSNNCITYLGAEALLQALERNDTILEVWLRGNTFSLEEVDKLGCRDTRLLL

[7] = test system: HEK293; assay: cells; details: Homo sapiens
[8] = test system: HEK293; assay: PMA/Ionomycin induced NF-kB luciferase assay in 293- NF-kB-Luc stable cells. [Related pubchem assays: 1299, 1270, 1295, 1375, 1287, 1281, 1293, 1291, 1289, 1280, 465, 1364, 1282, 1372, 1365, 1370, 1367, 1366, 1269, 1373, 1292, 1290, 1302, 1371, 1283, 1271, 1294, 1374, 1368, 1369 ]; type: functional, cell-based; details: Homo sapiens
[9] = molecular target: Luciferin 4-monooxygenase (Photinus pyralis, UniProt P08659); assay: In vitro luciferase assay using purified luciferase. [Related pubchem assays: 1299, 1270, 1295, 1375, 1287, 1281, 1293, 1291, 1289, 1280, 465, 1364, 1282, 1372, 1365, 1370, 1367, 1366, 1266, 1373, 1292, 1290, 1302, 1371, 1283, 1271, 1294, 1374, 1368, 1369 ]
[10] = test system: HEK293; assay: Cytotoxicity assay in HEK293 cells. [Related pubchem assays (depositor defined):AID1266, AID1269, AID1270, AID1271, AID1280, AID1281, AID1282, AID1283, AID1287, AID1289, AID1290, AID1291, AID1292, AID1293, AID1294, AID1295, AID1299, AID1302, AID1364, AID1365, AID1366, AID1367, AID1369, AID1370, AID1371, AID1372, AID1373, AID1374, AID1375, AID1384 …; type: functional, cell-based; details: Homo sapiens
[11] = test system: HEK293; assay: inhibitors of LMP1-driven NF-kB reporter, dose response, cell-based, HEK293, luciferase, cherry-pick (AID 588343); type: functional; details: Homo sapiens
[12] = molecular target: Large T antigen (Simian virus 40, UniProt P03070); type: functional, Betapolyomavirus macacae;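 further: Confirmatory-stage PubChem screen for compounds that inhibit SV40 T antigen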
[13] = molecular target: Induced myeloid leukemia cell differentiation protein Mcl-1 (Homo sapiens, UniProt Q07820); type: functional
Chain of Induced myeloid leukemia cell differentiation protein Mcl-1 (Q07820 whole entry): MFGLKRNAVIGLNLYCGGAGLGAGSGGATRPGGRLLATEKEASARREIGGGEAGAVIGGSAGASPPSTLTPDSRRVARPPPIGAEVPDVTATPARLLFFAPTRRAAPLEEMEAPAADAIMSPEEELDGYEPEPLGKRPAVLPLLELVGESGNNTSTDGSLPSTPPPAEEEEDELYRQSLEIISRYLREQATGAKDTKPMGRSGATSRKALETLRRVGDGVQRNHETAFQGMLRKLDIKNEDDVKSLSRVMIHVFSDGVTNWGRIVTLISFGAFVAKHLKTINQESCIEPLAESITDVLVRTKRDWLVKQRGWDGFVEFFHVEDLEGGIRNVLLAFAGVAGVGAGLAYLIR

[14] = molecular target: Intestinal-type alkaline phosphatase (Homo sapiens, UniProt P09923); assay: Dose Response confirmation of uHTS hits from a small molecule inhibitors of human intestinal alkaline phosphatase via a luminescent assay. [Related pubchem assays (depositor defined):AID2544, AID2574]; type: functional
Chain of Intestinal-type alkaline phosphatase (P09923 whole entry): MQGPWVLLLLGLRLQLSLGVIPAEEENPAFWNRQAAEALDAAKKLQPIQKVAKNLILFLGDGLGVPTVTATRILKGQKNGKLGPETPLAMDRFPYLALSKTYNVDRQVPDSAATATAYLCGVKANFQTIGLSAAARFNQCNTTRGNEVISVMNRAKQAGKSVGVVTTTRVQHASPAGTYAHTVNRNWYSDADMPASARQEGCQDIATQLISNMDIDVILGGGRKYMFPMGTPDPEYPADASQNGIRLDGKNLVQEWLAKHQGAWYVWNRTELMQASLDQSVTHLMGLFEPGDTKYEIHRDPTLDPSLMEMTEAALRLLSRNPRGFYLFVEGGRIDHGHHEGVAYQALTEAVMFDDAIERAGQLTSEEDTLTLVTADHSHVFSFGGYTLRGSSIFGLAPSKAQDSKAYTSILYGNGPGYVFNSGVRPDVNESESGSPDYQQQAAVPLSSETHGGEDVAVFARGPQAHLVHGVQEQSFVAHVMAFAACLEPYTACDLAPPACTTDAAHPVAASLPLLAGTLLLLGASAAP

[15] = molecular target: Albumin (Bos taurus, UniProt P02769); assay: Counterscreen for inhibitors of T-cell receptor (TCR)-CD3 interaction: Fluorescence-based biochemical high throughput dose response assay to identify inhibitors of T-cell receptor (TCR)-CD3 interaction using a TAMRA-labeled BSA probe.; type: functional
[16] = molecular target: Caspase-6 (Homo sapiens, UniProt P55212); assay: human caspase-6 inhibitors, dose response, biochemical, VEID-R110 fluorescence, cherry-pick (AID 720632)
[17] = molecular target: Caspase-7 (Homo sapiens, UniProt P55210); assay: human caspase-7 inhibitors, dose response, selectivity assay for caspase-6 inhibitor project, biochemical, DEVD-R110 fluorescence, cherry-pick (AID 743295)
[18] = molecular target: Caspase-8 (Homo sapiens, UniProt Q14790); assay: caspase-8 inhibition counter-screen, dose response, selectivity assay for caspase-6 inhibitor project, biochemical, Z-IETD-R110 fluorescence, cherry-picked samples (AID 743294)
[19] = molecular target: T2, Caspase-3 (Homo sapiens, UniProt P42574); assay: caspase-3 enzyme inhibitors, selectivity check, dose response, selectivity assay for caspase-6 allosteric inhibitor project, biochemical, fluorescence, cherry-picked samples (AID 743291)
T2 sequence (P42574 whole entry): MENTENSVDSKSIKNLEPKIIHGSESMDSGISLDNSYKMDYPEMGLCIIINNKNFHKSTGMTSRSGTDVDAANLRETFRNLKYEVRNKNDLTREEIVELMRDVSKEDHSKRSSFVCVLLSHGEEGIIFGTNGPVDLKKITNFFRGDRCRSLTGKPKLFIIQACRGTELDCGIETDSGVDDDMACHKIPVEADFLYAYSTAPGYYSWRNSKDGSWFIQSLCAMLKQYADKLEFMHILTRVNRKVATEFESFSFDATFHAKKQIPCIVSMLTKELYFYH

[20] = test system: J774.A1; assay: Confirmation of image-based Screening Assay for Inhibitors of Phagocytosis. [Related pubchem assays (depositor defined):AID1029, AID1643]; type: functional, cell-based; details: Mus musculus
[21] = cytotoxicity in HEK-293T cells, dose response, cytotoxicity control for TCR NF-kB inhibitor project, luminescence, T-cell screen hits (AID 489026); type: functional, cell-based;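 further: cells exposed to compound about 14 hours before the viability readout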
[22] = test system: Streptococcus sp. 'group A'; assay: growth inhibition of control SK(-) GAS strain, dose response, counter-screen for streptokinase expression inhibitor project, luminescence, kanamycin, BacTiterGlo, confirmation (AID 1900); type: functional, organism-based
[23] = molecular target: T3, Streptokinase A (Streptococcus pyogenes serotype M1, UniProt P10520); assay: S. pyogenes streptokinase expression inhibitors, potency, dose response, plasminogen activation absorbance, OD405 (AID 1914); type: functional, Streptococcus pyogenes M1 GAS;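 further: secreted streptokinase activity via plasminogen activation per viability signal from cell pellet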
T3 sequence (P10520 whole entry): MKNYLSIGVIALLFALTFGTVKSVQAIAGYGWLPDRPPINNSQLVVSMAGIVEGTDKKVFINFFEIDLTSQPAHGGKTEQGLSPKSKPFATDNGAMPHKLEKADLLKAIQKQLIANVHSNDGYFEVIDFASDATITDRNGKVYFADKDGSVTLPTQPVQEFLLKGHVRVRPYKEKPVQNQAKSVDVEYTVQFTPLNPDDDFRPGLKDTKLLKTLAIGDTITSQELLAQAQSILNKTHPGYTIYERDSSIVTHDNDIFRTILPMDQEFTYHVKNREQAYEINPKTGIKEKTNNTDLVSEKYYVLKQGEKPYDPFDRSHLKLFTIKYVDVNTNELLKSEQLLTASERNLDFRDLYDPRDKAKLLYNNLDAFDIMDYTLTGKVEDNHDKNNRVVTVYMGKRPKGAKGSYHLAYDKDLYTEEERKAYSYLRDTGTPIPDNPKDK

[24] = test system: Streptococcus; assay: Group A Streptococcus viability loss, dose response, counter-screen for streptokinase expression inhibitor project, luminescence, BacTiterGlo (AID 1915); type: functional, organism-based;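 further: potency for reduction of bacterial viability or growth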
[25] = molecular target: X-box-binding protein 1 (Homo sapiens, UniProt P17861); type: functional, Cricetulus griseus;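 further: confirmatory dose-response counter-screen serving a CHOP assay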
[26] = molecular target: Scavenger receptor class B member 1 (Mus musculus, UniProt Q61009); assay: inhibitors of SR-BI mediated HDL lipid uptake, dose response, ldlA[mSR-BI] cells, fluorescence, cherry pick (AID 493194); type: functional, cell-based;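 further: cellular uptake of fluorescent DiI-labeled HDL measured as cell fluorescence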
Chain of Scavenger receptor class B member 1 (Q61009 whole entry): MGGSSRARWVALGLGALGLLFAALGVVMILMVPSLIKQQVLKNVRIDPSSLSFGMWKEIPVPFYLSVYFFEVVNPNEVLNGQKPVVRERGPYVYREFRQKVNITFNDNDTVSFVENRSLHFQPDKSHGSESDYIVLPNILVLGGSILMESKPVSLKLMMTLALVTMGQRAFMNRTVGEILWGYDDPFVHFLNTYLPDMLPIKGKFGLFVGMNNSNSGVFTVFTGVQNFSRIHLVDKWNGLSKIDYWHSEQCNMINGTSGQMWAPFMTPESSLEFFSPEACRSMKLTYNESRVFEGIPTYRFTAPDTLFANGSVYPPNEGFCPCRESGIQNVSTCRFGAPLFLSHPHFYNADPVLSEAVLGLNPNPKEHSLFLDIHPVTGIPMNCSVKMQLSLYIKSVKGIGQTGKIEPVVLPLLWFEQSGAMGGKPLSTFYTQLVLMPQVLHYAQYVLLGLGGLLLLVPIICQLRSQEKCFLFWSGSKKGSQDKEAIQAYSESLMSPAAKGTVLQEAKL

[27] = molecular target: Cystic fibrosis transmembrane conductance regulator/Golgi-associated PDZ and coiled-coil motif-containing protein (Homo sapiens, UniProt P13569+Q9HD26); assay: CAL PDZ peptide-binding inhibitors, dose response, biochemical, fluorescence polarization, Cerulean-tagged CAL PDZ, cherry-picks (AID 504773)
Chain of Cystic fibrosis transmembrane conductance regulator/Golgi-associated PDZ and coiled-coil motif-containing protein (P13569 whole entry, other chains not shown): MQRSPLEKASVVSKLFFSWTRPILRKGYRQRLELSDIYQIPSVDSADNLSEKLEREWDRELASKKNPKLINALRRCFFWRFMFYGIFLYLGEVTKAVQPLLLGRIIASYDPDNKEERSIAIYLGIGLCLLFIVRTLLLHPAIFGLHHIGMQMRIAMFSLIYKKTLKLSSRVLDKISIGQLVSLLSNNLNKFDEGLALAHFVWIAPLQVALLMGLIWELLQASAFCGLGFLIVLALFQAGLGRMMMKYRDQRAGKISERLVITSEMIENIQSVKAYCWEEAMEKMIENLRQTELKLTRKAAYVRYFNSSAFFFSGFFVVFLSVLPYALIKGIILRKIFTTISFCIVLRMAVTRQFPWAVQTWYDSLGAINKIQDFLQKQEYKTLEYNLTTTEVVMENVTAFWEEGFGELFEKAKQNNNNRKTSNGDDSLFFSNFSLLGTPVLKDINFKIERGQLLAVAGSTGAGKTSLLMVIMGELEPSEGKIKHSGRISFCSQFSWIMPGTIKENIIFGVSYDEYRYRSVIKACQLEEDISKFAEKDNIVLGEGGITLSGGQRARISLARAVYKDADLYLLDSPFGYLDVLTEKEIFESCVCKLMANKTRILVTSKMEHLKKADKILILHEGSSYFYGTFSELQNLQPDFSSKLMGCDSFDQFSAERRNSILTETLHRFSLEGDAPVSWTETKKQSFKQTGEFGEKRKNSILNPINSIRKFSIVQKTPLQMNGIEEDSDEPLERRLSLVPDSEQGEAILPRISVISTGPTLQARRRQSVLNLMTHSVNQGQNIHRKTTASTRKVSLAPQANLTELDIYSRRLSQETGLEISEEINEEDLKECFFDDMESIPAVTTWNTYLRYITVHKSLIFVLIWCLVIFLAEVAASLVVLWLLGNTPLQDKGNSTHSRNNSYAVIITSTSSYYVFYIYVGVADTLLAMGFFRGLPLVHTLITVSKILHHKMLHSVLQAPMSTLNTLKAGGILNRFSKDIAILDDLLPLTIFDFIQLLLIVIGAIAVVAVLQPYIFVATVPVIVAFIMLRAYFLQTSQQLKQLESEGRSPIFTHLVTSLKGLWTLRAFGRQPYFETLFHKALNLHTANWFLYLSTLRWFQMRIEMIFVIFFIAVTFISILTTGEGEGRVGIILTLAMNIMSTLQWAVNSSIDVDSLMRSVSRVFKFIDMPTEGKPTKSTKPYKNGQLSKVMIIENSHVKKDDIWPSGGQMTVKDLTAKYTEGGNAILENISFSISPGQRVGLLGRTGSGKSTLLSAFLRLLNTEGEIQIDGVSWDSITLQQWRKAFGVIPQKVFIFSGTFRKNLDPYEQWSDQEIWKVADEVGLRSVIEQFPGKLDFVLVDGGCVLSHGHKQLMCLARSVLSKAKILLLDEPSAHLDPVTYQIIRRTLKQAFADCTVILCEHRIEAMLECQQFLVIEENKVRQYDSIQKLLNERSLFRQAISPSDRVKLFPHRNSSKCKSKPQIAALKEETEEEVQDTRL

## CN1C(=O)/C(=N\C2CCCCC2)c2c3ccccc3c(O)c3cccc1c23
[1]
  AC50: 101 µM (active)
[2]
  AC50: 77.3 µM (active)
[3]
  AC50: 8.48 µM (active)

## O=C(NC(=S)Nc1sc2c(c1C(=O)O)CCCC2)c1ccccc1
[4]
  IC50: 15.5 µM (active)
[5]
  IC50: 14.4 µM (active)
[6]
  IC50: 17.3 µM (active)
[7]
  IC50: > 20 µM (inactive)

## COc1cc(OC)cc(-c2cc3nc(C)c(CCC(=O)O)c(C)n3n2)c1
[8]
  EC50: 4.19 µM (not active)
[9]
  EC50: > 8 µM (not active)
[10]
  EC50: > 8 µM (inactive)
[11]
  AC50: 0.719 µM (active)

## O=c1oc2ccccc2c2oc3cc(O)c(O)cc3c12
[12]
  IC50: 6.52 µM (active)
[13]
  IC50: 6.69 µM (active)
[14]
  IC50: 3.52 µM (active)
[15]
  IC50: > 94.2 µM (inactive)
[16]
  AC50: 4.48 µM (active)
[17]
  AC50: 59.8 µM (active)
[18]
  AC50: > 70 µM (inactive)
[19]
  AC50: 22.1 µM (active)

## CCOc1ccc2c(c1)sc(N)[n+]2Cc1cc(C)cc2cccnc12
[20]
  IC50: 0.229 µM (active)
[21]
  IC50: > 80 µM (inactive)

## Cc1cccc(NCC(=O)N/N=C\c2cccc(Oc3ccccc3)c2)c1
[22]
  EC50: > 150 µM (not active)
[23]
  EC50: > 150 µM (not active)
[24]
  EC50: > 150 µM (not active)
[25]
  Absolute IC50 (XBP1): 10 µM

## CN1CCc2ccc(NC(=O)c3ccc(C(F)(F)F)cc3)cc2C1
[26]
  AC50: 90.7 µM (active)

## c1ccc(C(Nc2cccnc2)c2ccccc2)cc1
[27]
  AC50: 33 µM (active)
